In paper PMC9640981, “Plant vernalization proteins contain unusual PHD superdomains without histone H3 binding activity” (The Journal of Biological Chemistry, 2022):

Columns and labels:
Pd VIN3_123-326 = assay: ITC binding to Pd VIN3 PHD superdomain; parameters: species or system Phoenix dactylifera; settings: 25 °C, Pd VIN3_123-326 with 60-mer DNA
Method: VIN3_123-326 from P. dactilyfera was amplified by PCR from synthetic codon optimized genes (gBlocks, Integrated DNA Technologies) and subcloned into pEC-LIC-His-3C (kindly provided by Jurg Muller) containing a hexahistidine tag and a 3C protease cleavage site at the N terminus. VIN3_123-326 was expressed and purified as described previously for VIN3_150-208. In this case, after 3C cleavage overnight, the sample was loaded on a HiLoad 26/600 Superdex 200 pg column (GE Healthcare) in 25 mM Tris pH 8, 150 mM NaCl, and 1 mM DTT.
ITC was carried out at 25 °C with an iTC 200 Microcalorimeter (GE Healthcare) in 25 mM Tris pH 8, 150 mM NaCl, and 1 mM DTT. Titrations consisted of 19 consecutive 2 μl injections of 0.25 to 1 mM peptide solution (following a preinjection of 0.5 μl) into 50 μM protein (VIN3PHD, VIN3_123-326, VIN3_116-307, OBE1_193-372, or pVP13 VIN3_130-299) at time intervals of 120 s. ITC data were analyzed using MicroCal PEAQ-IT Analysis Software (Malvern Sciences).

[1] = tested on: ^15N-labeled Pd VIN3_123-326; assay: NMR (BEST-TROSY) interaction of negatively charged polymers with Pd VIN3 PHD superdomain; assay type: binding, Phoenix dactylifera
Method: For NMR spectroscopy, A. thaliana VIN3_150-208 and P. dactilyfera VIN3_123-326 were expressed in M9 minimal medium supplemented with 0.4% glucose, antibiotics, trace elements, 25 ml overnight culture, and 2 g of ^15N-H4Cl per liter of expression culture. Cultures were grown and processed essentially as described before. NMR samples containing 50 μM ^15N-labeled VIN3_150-208 or VIN3_123-326 were prepared in aqueous buffer (25 mM Tris pH 8, 150 mM NaCl, and 1 mM DTT). The 50 μM ^15N-labeled VIN3_150-208 or VIN3_123-326 was incubated with 0.5 mM histone H3 peptides resuspended in 25 mM Tris pH 8, 150 mM NaCl, and 1 mM DTT for >30 min before measurement. Spectra were recorded on a Bruker Avance-III spectrometer operating at 600 MHz ^1H frequency and equipped with a 5 mm inverse detection cryogenic probe. BEST-TROSY shift correlation experiments ([45]) were acquired with 256 × 1024 points in t1 and t2, respectively. Spectra were processed in TopSpin version 3.2 (Bruker), with linear prediction in t1, giving a digital resolution of 2.2 and 8.2 Hz/point in the processed data.
Generation of nucleic acid probes for NMR
FLC DNA was used as a template for the design of a dsDNA 60-mer probe, generated by annealing the sequence (5′ […] 3′) and its complementary oligonucleotide for 2 min at 95 °C. […]

Substance	affinity / binding of nucleic acid (in words) (Pd VIN3_123-326; ITC titrations, pH 8)	Kd (Pd VIN3_123-326; ITC, 25 mM Tris pH 8, 150 mM NaCl, 1 mM DTT, representative profile)	perturbation of BEST-TROSY spectrum (in words) ([1]; 50 μM ^15N-labeled VIN3_123-326, 4 μM 60-mer dsDNA or 63-mer RNA (Fig. 6A, B), ssDNA comparison E. F.-E., unpublished)	perturbation of BEST-TROSY spectrum, heparin (in words) ([1]; 50 μM ^15N-labeled VIN3_123-326, 4 μM heparin)
60-mer ssDNA: FLC 60-mer predicted to lack secondary structure, 5′ GAAGAAAAAGTAGATAGGCACAAAAAATAGAAAGAAATAAAGCGAGAAAAGGAAAAAAAA 3′ (DNA, backbone and methylation of C not given here)	weak binding in the low millimolar range	~5 mM	less effective in eliciting spectral changes than dsDNA	
heparin				same set of perturbations
